Source: patent US10548313B2, “Acetyl-CoA carboxylase modulators” (Monsanto Technology LLC, priority 2013, dated 2020)
Where “and” joins values, the source holds several entries; their conditions need not be identical. Equal entries are not always repeated. Where two headings read alike, the source gives them in different places.

What was measured:
Saccharomyces cerevisiae = test: Yeast growth inhibition assay; assay type: cell-based; details: for inhibition at 3.7 µM: read-out: S. cerevisiae % growth inhibition at 48 hours, 3.7 μM; for inhibition at 11.1 µM: read-out: S. cerevisiae % growth inhibition at 48 hours, 11.1 μM; for inhibition at 33.3 µM: read-out: S. cerevisiae % growth inhibition at 48 hours, 33.3 μM; for inhibition at 100 µM: read-out: S. cerevisiae % growth inhibition at 48 hours, 100 μM
Method: Yeast cells (Ade2 strain) were grown in liquid YPD (1% yeast extract, 2% peptone, 2% dextrose) for 16 hours at 30° C. from previously sub-cultured plates of Saccharomyces cerevisiae. The OD600 of the overnight culture was checked via spectrophotometer and diluted to a concentration of 2×10^4 cells/ml.
Chemistry stocks were dissolved in DMSO to a concentration of 10 mM. Chemistry stocks were further diluted in a 96-well stock plate to obtain final concentrations of 100, 33, 10 and 1 μM in 1% DMSO. The final concentrations of the soraphen positive controls were 400, 40, and 3.2 nM. The negative controls on each plate included a background subtraction control containing yeast and 1% DMSO (without chemistry) and a second contamination control containing YPD (with no yeast) and 1% DMSO (without chemistry).
98 μl liquid YPD was added to 2 μl diluted stock of DMSO per well and mixed thoroughly. After mixing, 100 μl of the diluted yeast solution was added to bring the final yeast concentration to 1×10^4 cells/ml or 2000 cells per well. An initial spectrophotometric reading at OD600 was conducted on the entire plate and served as the 0 hour time point used to subtract any background. […] […] […] All experiments were conducted in triplicate. Averages were reported along with standard deviation calculation to generate error bars. Each plate contained its own controls and consisted of inoculated+DMSO, non-inoculated+DMSO, and a titration series of soraphen at 400, 40, and 3.2 nM.

[1] = molecular target: Ustilago maydis acetyl CoA carboxylase (ACCase) (Mycosarcoma maydis (Ustilago maydis), UniProt A0A0D1DYD5); test: ACCase enzymatic assay (coupled PK/LDH, NADH OD340); assay type: biochemical
Method: Ustilago maydis acetyl CoA carboxylase (ACCase) was cloned, expressed, and purified as described (Weatherly et al, Biochem. J., 2004) and the test compounds were tested in a 96-well plate format. Primary in vitro screening consisted of obtaining dose response data at 100, 33, 10, and 1 μM inhibitor. Actives in the primary screen were re-tested to establish IC50 values.
Direct detection of the conversion of acetyl CoA to malonyl CoA by ACCase was not feasible, but during this process ATP is converted to ADP which allowed for detection through a standard reaction coupling with ADP recycling to the oxidation of NADH. Thus, ACCase activity was measured via kinetic OD340 measurements of the conversion of NADH to NAD in a coupled reaction involving the conversion of phosphoenolpyruvate (PEP) to lactate.
The complete 200 ul reaction mixture contained 52.5 mM HEPES (pH8), 2.625 mM MgCl2, 1 mM ATP, 0.525 mM DTT, 11 mM NaHCO3, 1% DMSO with or without inhibitor, 1× pyruvate kinase/lactate dehydrogenase (PK/LDH), 0.3 mM NADH, 0.5 mM PEP, and 5 μg ACCase. The reactions were incubated at 30° C. for 10 minutes and then initiated by the addition of 0.33 mM acetyl CoA. The initiated reactions were read immediately via plate reader at OD340 and kinetic readings were acquired every 20 s for 15 minutes while keeping the temperature at 30° C.
A slope of the kinetic curve was determined by using the 2 to 7 minute data which was then calculated as percent inhibition relative to the no inhibitor control.
The primary screens were conducted in duplicate and the IC50's conducted in triplicate. Averages were reported along with standard deviation calculation to generate error bars.
Each plate contained its own controls and consisted of a DMSO only control, 5-fold titration series of soraphen from 2 μM to 3.2 nM, and an ADP coupled reaction control.

[2] = test system: Collectotrichum graminicola; test: Fungal growth inhibition assay, Collectotrichum graminicola; assay type: cell-based; details: Colletotrichum graminicola, 48 hours, read-out: C. graminicola % growth inhibition at 48 hours
Method: (§1) Spores were isolated from previously sub-cultured plates of Botrytis cinerea, Phytophthora capsici, Fusarium moniliforme, Fusarium viguliforme, Collectotrichum graminicola, and Diplodia maydis. All spores were filtered and collected in a sterile glass bowl to isolate the spores from the mycelia. The isolation and sub-culture plate condition for each pathogen is described below.
Spore isolation for C. graminicola: A 1-2 week old oatmeal agar (pre-mix) plate was removed from 26° C. incubator with a light/dark 12 hour cycle and the mycelia were treated with 10-15 ml of filter sterilized distilled water. The mycelia were scraped to re-suspend the spores. The spores were then collected in a sterile filter bowl containing a piece of sterile cheesecloth and poured into a conical tube.
(§2) After spore isolation, pathogen spores were counted on a hemocytometer to calculate the spores/ml. In 17% V8 liquid media containing 3 g/L CaCO3, isolated spores were diluted to individual concentrations based on the growth curves at 48 hours of each pathogen. The spore concentrations for each pathogen were as follows: B. cinerea—10,000 sp/ml; P. capsici—300 sp/ml; F. monliforme—500 sp/ml; F. virguliforme—500 sp/ml; C. graminicola—3,000 sp/ml; and D. maydis—3,000 sp/ml.
(§3) Chemistry stocks were dissolved in DMSO at 2.5 mg/ml. Chemistry was diluted in a 96-well stock plate in five-fold dilutions to obtain a final concentration of 50, 10, and 2 ppm in vitro. The final concentration of the positive control after the five-fold dilutions was as follows: soraphen—0.5, 0.1, and 0.02 ppm. Negative controls on each plate included 2% DMSO, water containing spores and media, and a blank for background subtraction.
(§4) In a 96-well plate the spore solution, chemistries, and controls were combined to make the final solution concentrations mentioned above. Upon addition of the chemistry, an OD600 reading was done to assess chemical precipitation. The 96-well plates were incubated in plastic tubs containing wet paper towels under the following conditions, 25° C. in the dark for P. capsici and B. cinerea or 26° C. with light/dark cycle for C. graminicola, D. maydis, F. virguliforme, F. monliforme. Plate readings were repeated at 24 and 48 hrs. Visual ratings were performed at 24 and 48 hrs to check for precipitation and confirm efficacy. Visual and OD600 ratings of the chemistry at 48 hours were compared to the 2% DMSO control to determine the percent of pathogen growth inhibition.

Fusarium virguliforme = test: Fungal growth inhibition assay, Fusarium virguliforme; assay type: cell-based; details: 48 hours, read-out: F. virguliforme % growth inhibition at 48 hours
Method: as §1
Spore isolation for F. virguliforme: A 2-3 week old PDA (pre-mix) plate containing cefotaxime (100 mg/L) and kanamycin (50 mg/L) was removed from 26° C. incubator with a light/dark 12 hour cycle and the mycelia were treated with 5-10 ml of filter sterilized distilled water. The mycelia were scraped to re-suspend the spores. The spores were then collected in a sterile filter bowl containing a fluted piece of filter paper and poured into a conical tube.
as §2, §3, §4

Diplodia maydis = test: Fungal growth inhibition assay, Diplodia maydis; assay type: cell-based; details: 48 hours, read-out: D. maydis % growth inhibition at 48 hours
Method: as §1
Spore isolation for D. maydis: A 3-4 week old PDA (pre-mix) plate was removed from 26° C. incubator with a light/dark 12 hour cycle and the mycelia were treated with 6-7 ml of sterile distilled water, scraped into a sterile petri dish, and smashed to open the pycnidia. The spores were then collected in a sterile filter bowl containing a fluted piece of filter paper and poured into a conical tube.
as §2, §3, §4

Botrytis cinerea = test: Fungal growth inhibition assay, Botrytis cinerea; assay type: cell-based; details: 48 hours, read-out: B. cinerea % growth inhibition at 48 hours
From the text: as §1
Spore isolation for B. cinerea: A 2-3 week old V8 (17%)+CaCO3 (3 g/L)+20 g agar plate was removed from room temperature and the mycelia were treated with 5-10 ml of filter sterilized Triton X 100 (.05%). The mycelia were scraped to re-suspend the spores. The spores were then collected in a sterile filter bowl containing a fluted piece of filter paper and poured into a conical tube.
as §2, §3, §4

Phytophthora capsici = test: Fungal growth inhibition assay, Phytophthora capsici; assay type: cell-based; details: 48 hours, read-out: P. capsici % growth inhibition at 48 hours
From the text: as §1
Spore isolation for P. capsici: Three to five days prior to the assay a 2-3 week old V8 (17%)+CaCO3 (3 g/L)+20 g agar plate was removed from a dark 25° C. incubator and cut up into small chunks. One plate was separated into two deep well plates and rinsed with sterile distilled water three times. The cut up pieces were incubated under light in a sterile filter hood with 25 ml of sterile distilled water. On the day of the assay the water was removed and 5-7 ml of fresh sterile distilled water was added. One plate was incubated at 4° C. for 45-60 minutes and then placed at room temperature for about 45-60 minutes. The spores were collected in a sterile filter bowl containing a fluted piece of filter paper. The spores were vortexed in a conical tube for 30-60 seconds to remove the flagella of the zoospores after isolation.
as §2, §3, §4

[3] = Table 1B, racemate vs single enantiomers, read-out: ACCase Inhibitory Activity of Racemic Mixtures and Single Enantiomers IC50
[4] = Table 1A, values marked a are a result of two or more experiments, read-out: ACCase Inhibitory Activity IC50

Sequence of Ustilago maydis acetyl CoA carboxylase (ACCase) (A0A0D1DYD5 1-2185): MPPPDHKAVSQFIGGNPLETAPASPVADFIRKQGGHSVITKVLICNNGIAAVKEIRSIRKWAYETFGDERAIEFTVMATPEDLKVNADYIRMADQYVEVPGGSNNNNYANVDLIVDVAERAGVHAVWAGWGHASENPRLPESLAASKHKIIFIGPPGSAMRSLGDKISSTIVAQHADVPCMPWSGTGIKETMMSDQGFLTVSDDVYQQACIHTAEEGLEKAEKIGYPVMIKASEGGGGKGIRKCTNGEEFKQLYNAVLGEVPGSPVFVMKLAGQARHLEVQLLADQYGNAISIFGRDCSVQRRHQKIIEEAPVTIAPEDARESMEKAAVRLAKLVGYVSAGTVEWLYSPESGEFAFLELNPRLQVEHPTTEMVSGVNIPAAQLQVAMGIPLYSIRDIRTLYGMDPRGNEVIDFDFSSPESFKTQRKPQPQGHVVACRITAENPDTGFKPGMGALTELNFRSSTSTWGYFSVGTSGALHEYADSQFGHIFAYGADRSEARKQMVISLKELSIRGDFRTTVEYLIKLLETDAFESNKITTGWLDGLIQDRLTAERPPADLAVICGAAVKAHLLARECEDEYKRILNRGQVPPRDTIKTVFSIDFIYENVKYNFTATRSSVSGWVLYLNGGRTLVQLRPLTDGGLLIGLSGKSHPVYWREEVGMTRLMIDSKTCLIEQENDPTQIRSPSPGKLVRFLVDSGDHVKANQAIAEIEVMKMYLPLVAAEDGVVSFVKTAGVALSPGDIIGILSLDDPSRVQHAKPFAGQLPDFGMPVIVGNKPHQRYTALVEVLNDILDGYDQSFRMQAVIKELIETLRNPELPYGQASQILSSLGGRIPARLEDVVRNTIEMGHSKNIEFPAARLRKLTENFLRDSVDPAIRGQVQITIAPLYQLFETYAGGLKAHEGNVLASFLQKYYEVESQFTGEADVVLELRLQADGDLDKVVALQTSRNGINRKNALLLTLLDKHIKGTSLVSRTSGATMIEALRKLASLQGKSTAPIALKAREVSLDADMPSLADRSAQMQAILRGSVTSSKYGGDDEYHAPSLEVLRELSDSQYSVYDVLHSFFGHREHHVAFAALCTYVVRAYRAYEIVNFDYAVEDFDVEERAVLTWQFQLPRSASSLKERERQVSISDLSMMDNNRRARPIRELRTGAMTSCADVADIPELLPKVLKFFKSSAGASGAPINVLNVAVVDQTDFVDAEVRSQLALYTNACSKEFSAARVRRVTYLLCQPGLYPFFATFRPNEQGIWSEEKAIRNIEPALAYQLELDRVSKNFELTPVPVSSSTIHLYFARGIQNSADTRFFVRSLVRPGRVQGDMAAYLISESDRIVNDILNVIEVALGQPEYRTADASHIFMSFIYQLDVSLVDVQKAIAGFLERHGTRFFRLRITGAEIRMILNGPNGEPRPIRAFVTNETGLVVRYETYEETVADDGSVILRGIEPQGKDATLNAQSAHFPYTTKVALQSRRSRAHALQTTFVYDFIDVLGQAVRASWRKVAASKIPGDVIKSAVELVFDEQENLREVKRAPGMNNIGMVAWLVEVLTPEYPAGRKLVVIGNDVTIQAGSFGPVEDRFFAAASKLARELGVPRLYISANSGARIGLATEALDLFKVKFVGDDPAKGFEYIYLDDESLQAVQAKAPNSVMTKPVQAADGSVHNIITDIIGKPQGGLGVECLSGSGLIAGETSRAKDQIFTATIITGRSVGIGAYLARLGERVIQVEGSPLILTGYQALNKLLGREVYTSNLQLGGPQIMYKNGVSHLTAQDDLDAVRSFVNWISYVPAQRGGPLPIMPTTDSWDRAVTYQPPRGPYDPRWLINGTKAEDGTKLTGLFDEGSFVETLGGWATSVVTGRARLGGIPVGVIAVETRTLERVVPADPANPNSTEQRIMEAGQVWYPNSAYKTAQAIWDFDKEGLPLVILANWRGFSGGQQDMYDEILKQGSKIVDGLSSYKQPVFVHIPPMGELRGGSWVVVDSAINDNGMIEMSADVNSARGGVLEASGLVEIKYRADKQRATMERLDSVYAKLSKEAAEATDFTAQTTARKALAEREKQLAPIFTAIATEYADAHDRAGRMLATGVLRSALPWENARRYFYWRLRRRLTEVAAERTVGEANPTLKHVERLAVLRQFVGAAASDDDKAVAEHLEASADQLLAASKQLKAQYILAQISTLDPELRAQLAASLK

Compound `N#Cc1c(C(F)(F)F)cc(-c2cccs2)nc1SC(C(=O)O)c1ccccc1` (racemic) [Formula Ia-ii, 2-((3-cyano-6-(thiophen-2-yl)-4-(trifluoromethyl)pyridin-2-yl)thio)-2-phenylacetic acid] has an inhibition at 3.7 µM (Saccharomyces cerevisiae) of 7%, an inhibition at 11.1 µM (Saccharomyces cerevisiae) of 0% and an inhibition at 33.3 µM (Saccharomyces cerevisiae) of 12%. The inhibition at 100 µM (Saccharomyces cerevisiae) was 51% and the IC50 [1, 3] was 2020 nM.

With `N#Cc1c(-c2cccs2)cc(-c2cccs2)nc1SC(C(=O)O)c1ccccc1` (racemic) [Formula Ia-iii, 2-((3-cyano-4,6-di(thiophen-2-yl)pyridin-2-yl)thio)-2-phenylacetic acid] the inhibition at 2 ppm [2] was 27%, the inhibition at 10 ppm [2] was 98% and the inhibition at 50 ppm [2] was 91%. For the same compound, the inhibition at 2 ppm (Fusarium virguliforme) was 2%, the inhibition at 10 ppm (Fusarium virguliforme) was 84% and the inhibition at 50 ppm (Fusarium virguliforme; 50 ppm) was 90%. It also gave an inhibition at 2 ppm (Diplodia maydis) of 0%, an inhibition at 10 ppm (Diplodia maydis) of 87% and an inhibition at 50 ppm (Diplodia maydis) of 82%.

With `COc1ccc(-c2cc(-c3cccs3)nc(SC(C(=O)O)c3ccccc3)c2C#N)cc1` (racemic) [Formula Ia-xiv, 2-((3-cyano-4-(4-methoxyphenyl)-6-(thiophen-2-yl)pyridin-2-yl)thio)-2-phenylacetic acid] the inhibition at 2 ppm [2] was 6%, the inhibition at 10 ppm [2] was 32% and the inhibition at 50 ppm [2] was 79%. For the same compound, the inhibition at 2 ppm (Botrytis cinerea) was 14%, the inhibition at 10 ppm (Botrytis cinerea) was 8% and the IC50 [1, 3] was 92 nM and 140 nM.

In the case of `COc1ccc(-c2cc(C(F)(F)F)c(C#N)c(SC(C(=O)O)c3ccccc3)n2)c(OC)c1` (stereo not shown) [Formula Ia-viii, 2-((3-cyano-6-(2,4-dimethoxyphenyl)-4-(trifluoromethyl)pyridin-2-yl)thio)-2-phenylacetic acid], the inhibition at 3.7 µM (Saccharomyces cerevisiae) is reported as 6%, the inhibition at 11.1 µM (Saccharomyces cerevisiae) is reported as 23% and the inhibition at 33.3 µM (Saccharomyces cerevisiae) is reported as 62%. It also gave an inhibition at 100 µM (Saccharomyces cerevisiae) of 100% and an IC50 [1, 4] of 1720 nM.

`N#Cc1c(C(F)(F)F)cc(-c2ccc(Br)cc2)nc1SC(C(=O)O)c1ccccc1` (stereo not shown) [Formula Ia-x, 2-((6-(4-bromophenyl)-3-cyano-4-(trifluoromethyl)pyridin-2-yl)thio)-2-phenylacetic acid] showed an inhibition at 2 ppm (Botrytis cinerea) of 0%, an inhibition at 10 ppm (Botrytis cinerea) of 12% and an inhibition at 50 ppm (Botrytis cinerea) of 25%. It also gave an inhibition at 3.7 µM (Saccharomyces cerevisiae) of 12%, an inhibition at 11.1 µM (Saccharomyces cerevisiae) of 13% and an inhibition at 33.3 µM (Saccharomyces cerevisiae) of 46%. It also gave an inhibition at 100 µM (Saccharomyces cerevisiae) of 99% and an IC50 [1, 4] of 1950 nM.

Work on `N#Cc1c(-c2ccccc2)cc(-c2ccccc2)nc1SC(C(=O)O)c1ccccc1` (stereo not shown) [Formula Ia-xii, 2-((3-cyano-4,6-diphenylpyridin-2-yl)thio)-2-phenylacetic acid] yielded an inhibition at 2 ppm [2] of 6%, an inhibition at 10 ppm [2] of 35% and an inhibition at 50 ppm [2] of 80%. It also gave an inhibition at 2 ppm (Botrytis cinerea) of 0%, an inhibition at 10 ppm (Botrytis cinerea) of 6% and an inhibition at 50 ppm (Botrytis cinerea) of 19%. The inhibition at 2 ppm (Diplodia maydis) was 42%, the inhibition at 10 ppm (Diplodia maydis) was 59% and the inhibition at 50 ppm (Diplodia maydis) was 86%. It also gave an IC50 [1, 4] of 266 nM, an inhibition at 2 ppm (Phytophthora capsici; 2 ppm) of 16% and an inhibition at 10 ppm (Phytophthora capsici; 10 ppm) of 36%. The inhibition at 50 ppm (Phytophthora capsici; 50 ppm) was 22%.

With `CCc1nc(SC(C(=O)O)c2ccccc2)c(C#N)c2c1CCCC2` (stereo not shown) [Formula Ia-xv, 2-((4-cyano-1-ethyl-5,6,7,8-tetrahydroisoquinolin-3-yl)thio)-2-phenylacetic acid] the inhibition at 2 ppm (Fusarium virguliforme) was 10%, the inhibition at 10 ppm (Fusarium virguliforme) was 48% and the IC50 [1, 4] was 10200 nM.

With `COc1ccc(-c2cc(-c3ccc[s+]3[O-])nc(OC(C(=O)O)c3ccccc3)c2C#N)cc1` (stereo not shown) [Formula Ia-xxviii, 2-((3-cyano-4-(4-methoxyphenyl)-6-(1-oxidothiophen-2-yl)pyridin-2-yl)oxy)-2-phenylacetic acid] the inhibition at 2 ppm (Botrytis cinerea) was 14%, the inhibition at 10 ppm (Botrytis cinerea) was 27% and the IC50 [1, 4] was 196 nM.
